Assay results taken from patent US20240116985A1, “STAPLED PEPTIDES AND METHODS THEREOF” (priority 2020, published 2024).
pIC50: −log10 of the molar value. In brackets after ≈: the same amount, converted by molar mass. Read-outs that look alike come from different tables or passages of the source.

Experiments:
[1] = molecular target: T1, beta-catenin/TCF4 engagement (Homo sapiens, UniProt P35222); test: Nano-BRET target engagement assay (B-cat-Halo & TCF4-Luc in HEK293 cells); assay type: cell-based
T1 construct: expressed in transfected cells; host or cells: HEK293
T1 sequence (P35222 1-781): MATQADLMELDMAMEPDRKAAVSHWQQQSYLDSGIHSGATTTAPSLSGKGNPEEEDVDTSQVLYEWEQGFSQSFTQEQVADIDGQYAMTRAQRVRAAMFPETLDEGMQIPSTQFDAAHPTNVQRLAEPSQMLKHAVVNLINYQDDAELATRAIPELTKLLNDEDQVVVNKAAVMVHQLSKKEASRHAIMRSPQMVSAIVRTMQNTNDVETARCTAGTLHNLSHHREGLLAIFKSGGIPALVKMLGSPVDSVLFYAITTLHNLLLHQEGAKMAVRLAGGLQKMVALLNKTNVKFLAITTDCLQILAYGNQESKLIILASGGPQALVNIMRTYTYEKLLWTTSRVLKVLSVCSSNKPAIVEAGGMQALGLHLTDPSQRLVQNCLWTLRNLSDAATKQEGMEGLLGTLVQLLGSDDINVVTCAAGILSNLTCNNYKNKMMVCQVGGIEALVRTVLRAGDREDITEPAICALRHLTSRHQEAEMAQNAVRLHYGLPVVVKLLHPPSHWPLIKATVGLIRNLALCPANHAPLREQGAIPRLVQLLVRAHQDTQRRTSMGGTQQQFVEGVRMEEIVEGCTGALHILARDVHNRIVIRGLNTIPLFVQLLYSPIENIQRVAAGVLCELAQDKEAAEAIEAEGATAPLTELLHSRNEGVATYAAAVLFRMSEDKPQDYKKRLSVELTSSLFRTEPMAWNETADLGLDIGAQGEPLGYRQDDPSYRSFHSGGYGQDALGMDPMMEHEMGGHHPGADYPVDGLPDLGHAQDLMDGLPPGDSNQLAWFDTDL

[2] = molecular target: T2, full-length beta-Catenin (Uniprot ID P35222) (Homo sapiens, UniProt P35222); test: Fluorescence polarization IC50 (beta-catenin / 5FAM-TCF4 10-53 competition); assay type: binding
T2 construct: 10 nM full-length beta-Catenin (Uniprot ID P35222)
T2 sequence (P35222 1-781): T1 sequence (P35222 1-781)

CHI Log D procedure = assay type: physicochemical; conditions: for chromatographic logD: pH 7.4, CHI Log D; for CHI Log D: pH 7.4
Solubility in PBS = assay type: physicochemical
Method in brief: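 Read-out is the HPLC peak area of the supernatant from ultracentrifuged PBS solution, scaled against a 50 μM peptide DMSO injection; value reported as [(PBS area)/(DMSO area)]*50 uM.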

[3] = absolute IC50, read-out: NanoBRET Abs IC50
[4] = fluorescence polarization, read-out: beta-Catenin FP IC50

| Compound | pIC50 [1, 3] | pIC50 [2, 4] | chromatographic logD (CHI Log D procedure) | Solubility (Solubility in PBS; Solubility (uM)) [µM] | pIC50 ([1]; read-out: NanoBRET IC50) | pIC50 ([2]; read-out: FP EC50) | CHI Log D (CHI Log D procedure) | Solubility (Solubility in PBS) [µM] | inhibition at 10 µM ([1]; HEK293, @ 10 uM, read-out: NanoBRET % inh @ 10 uM) [%] |
| --- | --- | --- | --- | --- | --- | --- | --- | --- | --- |
| CC(=O)N1CCC[C@]12CC=CCCCC1(CCCC=CCCCCCC[C@@](C)(C(=O)N[C@@H](Cc3ccccc3)C(=O)N[C@@H](Cc3csc4ccccc34)C(=O)N[C@@H](Cc3c[nH]cn3)C(N)=O)NC(=O)[C@H](CC(N)=O)NC(=O)[C@H](Cc3ccccc3)NC(=O)[C@H](C)NC(=O)[C@H](C)NC(=O)[C@H](CC(=O)O)NC(=O)[C@H](CC(=O)O)NC1=O)NC(=O)[C@H](CC(C)(C)C)NC(=O)[C@H](CC(=O)O)NC2=O (stereo partly drawn) [I-582, Ac-PL3-Asp-Npg-B5-Asp-Asp-Ala-Ala-Phe-Asn-S8-Phe-BztA-His-NH2] | 4.80 | 7.76 | 2.5 | 22 (≈ 41.3 µg/mL) |  |  |  |  |  |
| CC[C@H](C)[C@@H]1NC(=O)[C@H](CC(=O)O)NC(=O)[C@]2(CC=CCCCC3(CCCC=CCCCCCC[C@@](C)(C(=O)N[C@@H](Cc4ccccc4)C(=O)N[C@@H](Cc4csc5ccccc45)C(=O)N[C@@H](CCC(N)=O)C(N)=O)NC(=O)[C@H](CCC(N)=O)NC(=O)[C@H](Cc4ccccc4)NC(=O)[C@H](C)NC(=O)[C@H](CCC(N)=O)NC(=O)[C@H](CCC(=O)O)NC(=O)[C@H](CC(=O)O)NC3=O)NC1=O)CCCN2C(C)=O (stereo partly drawn) [I-654, Ac-PL3-Asp-Ile-B5-Asp-Glu-Gln-Ala-Phe-Gln-S8-Phe-BztA-Gln-NH2] | 4.82 | 7.70 |  |  |  | 7.70 | 2.121 | 47 (≈ 91.2 µg/mL) |  |
| CC(=O)N1CCC[C@]12CC=CCCCC1(CCCC=CCCCCCC[C@@](C)(C(=O)N[C@@H](Cc3ccsc3)C(=O)N[C@@H](Cc3csc4ccccc34)C(=O)N[C@@H](CCC(N)=O)C(N)=O)NC(=O)[C@H](CC(N)=O)NC(=O)[C@H](Cc3ccccc3)NC(=O)[C@H](C)NC(=O)[C@H](C)NC(=O)[C@H](CC(=O)O)NC(=O)[C@H](CC(=O)O)NC1=O)NC(=O)[C@H](CC(C)(C)C)NC(=O)[C@H](CC(=O)O)NC2=O (stereo partly drawn) [I-678, Ac-PL3-Asp-Npg-B5-Asp-Asp-Ala-Ala-Phe-Asn-S8-3Thi-BztA-Gln-NH2] | 4.77 | 7.59 |  |  |  | 7.59 | 2.329 | 49 (≈ 91.9 µg/mL) |  |
| CC(=O)N1CCC[C@]12CC=CCCCC1(CCCC=CCCCCCC[C@@](C)(C(=O)N[C@@H](Cc3ccsc3)C(=O)N[C@@H](Cc3csc4ccccc34)C(=O)N[C@@H](CCC(N)=O)C(N)=O)NC(=O)[C@H](CC(N)=O)NC(=O)[C@H](Cc3ccccc3)NC(=O)[C@H](C)NC(=O)[C@H](C)NC(=O)[C@H](CC(=O)O)NC(=O)[C@H](CC(=O)O)NC1=O)NC(=O)[C@H](CC(C)(C)C)NC(=O)[C@H](CC(=O)O)NC2=O (stereo partly drawn) [I-679, Ac-PL3-Asp-Npg-B5-Asp-Asp-Ala-Ala-Phe-Asn-S8-3Thi-BztA-Gln-NH2] | 4.77 | 8.15 |  |  |  | 8.15 | 2.382 | 48 (≈ 90 µg/mL) | 44.8 |
| CC(=O)N1CCC[C@]12CC=CCCCC1(CCCC=CCCCCCC[C@@](C)(C(=O)N[C@@H](Cc3ccsc3)C(=O)N[C@@H](Cc3csc4ccccc34)C(=O)N[C@@H](CCC(N)=O)C(N)=O)NC(=O)[C@H](CC(N)=O)NC(=O)[C@H](Cc3ccccc3)NC(=O)[C@H](C)NC(=O)[C@H](C)NC(=O)[C@H](CC(=O)O)NC(=O)[C@H](CC(=O)O)NC1=O)NC(=O)[C@H](CC(C)C)NC(=O)[C@H](CC(=O)O)NC2=O (stereo partly drawn) [I-680, Ac-PL3-Asp-Leu-B5-Asp-Asp-Ala-Ala-Phe-Asn-S8-3Thi-BztA-Gln-NH2] | 4.46 | 7.49 |  |  |  | 7.49 | 2.215 | 47 (≈ 87.5 µg/mL) |  |
| CC(=O)N1CCC[C@]12CC=CCCCC1(CCCC=CCCCCCC[C@@](C)(C(=O)N[C@@H](Cc3ccsc3)C(=O)N[C@@H](Cc3csc4ccccc34)C(=O)N[C@@H](CCC(N)=O)C(N)=O)NC(=O)[C@H](CC(N)=O)NC(=O)[C@H](Cc3ccccc3)NC(=O)[C@H](C)NC(=O)[C@H](C)NC(=O)[C@H](CCC(=O)O)NC(=O)[C@H](CC(=O)O)NC1=O)NC(=O)[C@H](CC(C)(C)C)NC(=O)[C@H](CC(=O)O)NC2=O (stereo partly drawn) [I-683, Ac-PL3-Asp-Npg-B5-Asp-Glu-Ala-Ala-Phe-Asn-S8-3Thi-BztA-Gln-NH2] | 5.17 | 7.72 |  |  |  | 7.72 | 2.44 | 37 (≈ 69.9 µg/mL) |  |
| CC(=O)N1CCC[C@]12CC=CCCCC1(CCCC=CCCCOC(=O)N3CC[C@@](C(=O)N[C@@H](Cc4ccccc4)C(=O)N[C@@H](Cc4csc5ccccc45)C(=O)N[C@@H](CCC(N)=O)C(N)=O)(C3)NC(=O)[C@H](CC(N)=O)NC(=O)[C@H](Cc3ccccc3)NC(=O)[C@H](C)NC(=O)[C@H](C)NC(=O)[C@H](CCC(=O)O)NC(=O)[C@H](CC(=O)O)NC1=O)NC(=O)[C@H](CC(C)(C)C)NC(=O)[C@H](CC(=O)O)NC2=O (stereo partly drawn) [I-684, Ac-PL3-Asp-Npg-B5-Asp-Glu-Ala-Ala-Phe-Asn-PyrS2-Phe-BztA-Gln-NH2] | 4.84 | 7.82 |  |  |  | 7.82 | 2.037 | 44 (≈ 84.8 µg/mL) |  |

Results, then the molecule that gave them:

| pIC50 [1, 3] | pIC50 [2, 4] | chromatographic logD (CHI Log D procedure) | Solubility (Solubility in PBS; Solubility (uM)) [µM] | pIC50 ([1]; read-out: NanoBRET IC50) | pIC50 ([2]; read-out: FP EC50) | CHI Log D (CHI Log D procedure) | Solubility (Solubility in PBS) [µM] | inhibition at 10 µM ([1]; HEK293, @ 10 uM, read-out: NanoBRET % inh @ 10 uM) [%] | Compound |
| --- | --- | --- | --- | --- | --- | --- | --- | --- | --- |
| 4.92 | 7.46 |  |  | 5.24 | 7.46 | 2.688 | 48 (≈ 91.6 µg/mL) |  | CC(=O)N1CCC[C@]12CC=CCCCC1(CCCC=CCCCCCC[C@@](C)(C(=O)N[C@@H](Cc3ccccc3)C(=O)N[C@@H](Cc3csc4ccccc34)C(=O)N[C@@H](CCC(N)=O)C(N)=O)NC(=O)[C@H](CC(N)=O)NC(=O)[C@H](Cc3ccccc3)NC(=O)[C@H](C)NC(=O)[C@H](C)NC(=O)[C@H](CCC(=O)O)NC(=O)[C@H](CC(=O)O)NC1=O)NC(=O)[C@H](CC1CCCCC1)NC(=O)[C@H](CC(=O)O)NC2=O (stereo partly drawn) [I-620, Ac-PL3-Asp-Cha-B5-Asp-Glu-Ala-Ala-Phe-Asn-S8-Phe-BztA-Gln-NH2] |
| 4.52 | 7.44 |  |  |  | 6.16 | 3.109 | 40 (≈ 71.4 µg/mL) |  | CC(=O)N1CCC[C@]12CC=CCCCC1(CCCC=CCCCCCC[C@@](C)(C(=O)N[C@@H](Cc3ccccc3)C(=O)N[C@@H](Cc3csc4ccccc34)C(N)=O)NC(=O)[C@H](CCCNC(N)=O)NC(=O)[C@H](Cc3ccccc3)NC(=O)[C@H](C)NC(=O)[C@H](C)NC(=O)[C@H](CCC(=O)O)NC(=O)[C@H](CC(=O)O)NC1=O)NC(=O)[C@H](CC(C)C)NC(=O)[C@H](CC(=O)O)NC2=O (stereo partly drawn) [I-629, Ac-PL3-Asp-Leu-B5-Asp-Glu-Ala-Ala-Phe-Cit-S8-Phe-BztA-NH2] |
| 4.79 | 7.59 |  |  |  | 7.59 | 2.125 | 46 (≈ 87.4 µg/mL) |  | CC[C@H](C)[C@@H]1NC(=O)[C@H](CC(=O)O)NC(=O)[C@]2(CC=CCCCC3(CCCC=CCCCCCC[C@@](C)(C(=O)N[C@@H](Cc4ccccc4)C(=O)N[C@@H](Cc4csc5ccccc45)C(=O)N[C@@H](CCC(N)=O)C(N)=O)NC(=O)[C@H](CCC(N)=O)NC(=O)[C@H](Cc4ccccc4)NC(=O)[C@H](CO)NC(=O)[C@H](C)NC(=O)[C@H](CCC(=O)O)NC(=O)[C@H](CC(=O)O)NC3=O)NC1=O)CCCN2C(C)=O (stereo partly drawn) [I-662, Ac-PL3-Asp-Ile-B5-Asp-Glu-Ala-Ser-Phe-Gln-S8-Phe-BztA-Gln-NH2] |
| 5.17 | 7.66 | 2.45 | 49 (≈ 92.3 µg/mL) |  |  |  |  |  | CC(=O)N1CCC[C@]12CC=CCCCC1(CCCC=CCCCCCC[C@@](C)(C(=O)N[C@@H](Cc3ccccc3)C(=O)N[C@@H](Cc3csc4ccccc34)C(=O)N[C@@H](CCC(N)=O)C(N)=O)NC(=O)[C@H](CC(N)=O)NC(=O)[C@H](Cc3ccccc3)NC(=O)[C@H](C)NC(=O)[C@H](C)NC(=O)[C@H](CCC(=O)O)NC(=O)[C@H](CC(=O)O)NC1=O)NC(=O)[C@H](CC(C)(C)C)NC(=O)[C@H](CC(=O)O)NC2=O (stereo partly drawn) [I-677, Ac-PL3-Asp-Npg-B5-Asp-Glu-Ala-Ala-Phe-Asn-S8-Phe-BztA-Gln-NH2] |
| 4.60 | 7.92 |  |  |  | 7.92 | 2.273 | 48 (≈ 89.3 µg/mL) |  | CC(=O)N1CCC[C@]12CC=CCCCC1(CCCC=CCCCCCC[C@@](C)(C(=O)N[C@@H](Cc3ccsc3)C(=O)N[C@@H](Cc3csc4ccccc34)C(=O)N[C@@H](CCC(N)=O)C(N)=O)NC(=O)[C@H](CC(N)=O)NC(=O)[C@H](Cc3ccccc3)NC(=O)[C@H](C)NC(=O)[C@H](C)NC(=O)[C@H](CC(=O)O)NC(=O)[C@H](CC(=O)O)NC1=O)NC(=O)[C@H](CC(C)C)NC(=O)[C@H](CC(=O)O)NC2=O (stereo partly drawn) [I-681, Ac-PL3-Asp-Leu-B5-Asp-Asp-Ala-Ala-Phe-Asn-S8-3Thi-BztA-Gln-NH2] |
